Holding throughout (assay type): cell-based
The subject of data set [1] is MCF-7 cells. In words: MTT anti-proliferative assay, MCF-7. Particulars: Homo sapiens, MCF7, read-out: IC50 MCF-7. (Tetrazolium dyes change colour on reduction, which living cells bring about.)
The subject of data set [2] is MDA-MB-231 cells. Description: MTT anti-proliferative assay, MDA-MB-231. Particulars: for IC50: Homo sapiens, MDA-MB-231, read-out: IC50 MDA-MB-231; for selectivity between cell lines (in words): MDA-MB-231 versus MCF-7.
Data set [3] relates to HEK-293 cells. Description: Cytotoxicity against non-tumorigenic HEK-293 cells. Particulars: for IC50: Homo sapiens, HEK293, read-out: IC50 value in HEK293 cells.

“Also recorded” adds a separate entry of the source.

As for `COc1ccc(/C(=C(/CCn2cc(CN3C(=O)C(=O)c4cc(Br)ccc43)nn2)c2ccccc2)c2ccccc2)cc1` [12b], the IC50 in data set [1] is greater than 100 µM; in data set [2], 75.9 µM. In addition, the “selectivity between cell lines (in words)” value in data set [2] is reported as “selective against MDA-MB-231 cells”.

In the case of `CC1=CC(=O)c2c(O)cccc2C1=O` [Plumbagin, reference compound], the IC50 was found to be 3.5 µM in data set [1] and 4.4 µM in data set [2].

Consider `COc1ccc(/C(=C(/CCn2cc(CN3C(=O)C4(OCCO4)c4cc(Cl)ccc43)nn2)c2ccccc2)c2ccccc2)cc1` [13a], for which the IC50 in data set [1] is 21 µM; in data set [2], 20.4 µM; in data set [3], 43.9 µM. Also, the “cytotoxicity against HEK-293 cells (in words)” value (“cytotoxicity” below) in data set [3] was “moderately cytotoxic”.

Take `O=C1N(Cc2cn(CC/C(=C(\c3ccccc3)c3ccc(OCCO)cc3)c3ccccc3)nn2)c2ccc(Cl)cc2C12OCCO2` [15b]: the IC50 in data set [1] and in data set [2] was greater than 100 µM throughout.

On to `O=C1C(=O)N(Cc2cn(CC/C(=C(\c3ccccc3)c3ccc(OCCO)cc3)c3ccccc3)nn2)c2c(Br)cc(Br)cc21` [14e], for which the IC50 in data set [1] stood at 31.6 µM. Also, in data set [2], the IC50 came to 19.2 µM and the “selectivity between cell lines (in words)” value was “selective for the estrogen-independent MDA-MB-231 cells; also recorded: more selective towards the ER-cells”. Moreover, in data set [3], the “cytotoxicity” value is recorded as “non-cytotoxic” and the IC50 is greater than 100 µM.

As to `COc1ccc(/C(=C(/CCn2cc(CN3C(=O)C(=O)c4cc(Br)cc(Br)c43)nn2)c2ccccc2)c2ccccc2)cc1` [12c], the IC50 in data set [1] was 13.1 µM; in data set [2], 14.8 µM; in data set [3], 21.6 µM. Besides, the “cytotoxicity” value in data set [3] is “moderately cytotoxic”.

With `O=C1N(Cc2cn(CC/C(=C(\c3ccccc3)c3ccc(OCCO)cc3)c3ccccc3)nn2)c2ccc(Br)cc2C12OCCO2` [15d], the IC50 in data set [1] and in data set [2] was greater than 100 µM each time.

Turning to `O=C1C(=O)N(Cc2cn(CC/C(=C(\c3ccccc3)c3ccc(OCCO)cc3)c3ccccc3)nn2)c2ccc(Br)cc21` [14d], the IC50 in data set [1] and in data set [2] was greater than 100 µM throughout.

For `O=C1C(=O)N(Cc2cn(CC/C(=C(\c3ccccc3)c3ccc(OCCO)cc3)c3ccccc3)nn2)c2ccc(F)cc21` [14c], the IC50 in data set [1] and in data set [2] was 70.7 µM in each case.

On to `OCCOc1ccc(/C(=C(/CCCl)c2ccccc2)c2ccccc2)cc1` [OSP, Ospemifene, reference compound], for which the IC50 was 55 µM in data set [1] and greater than 100 µM in data set [2].

As for `O=C1C(=O)N(Cc2cn(CC/C(=C(\c3ccccc3)c3ccc(OCCO)cc3)c3ccccc3)nn2)c2ccccc21` [14a], the IC50 in data set [1] and in data set [2] was greater than 100 µM throughout.

`O=C1C(=O)N(Cc2cn(CC/C(=C(\c3ccccc3)c3ccc(OCCO)cc3)c3ccccc3)nn2)c2ccc(Cl)cc21` [14b]: the IC50 in data set [1] is 33.1 µM. In addition, in data set [2], the IC50 is 18.1 µM and the “selectivity between cell lines (in words)” value is “selective for the estrogen-independent MDA-MB-231 cells”.

Regarding `O=C1N(Cc2cn(CC/C(=C(\c3ccccc3)c3ccc(OCCO)cc3)c3ccccc3)nn2)c2ccc(F)cc2C12OCCO2` [15c], the IC50 in data set [1] and in data set [2] was greater than 100 µM each time.

Broadly, the IC50 is the midpoint of a concentration-inhibition curve.

The values above are taken from publication PMC9076587 (RSC Advances, 2019).
